Structures can show the parent of a compound that is named as a salt.
Tested on: DBA/2 mice (audiogenic seizures)
Assay: In vivo anticonvulsant activity in the DBA/2 mouse model (mouse audiogenic assay)
Conditions: 10 mg/kg intraperitoneally 30 minutes prior to auditory stimulus (12 KHz sine wave, 110-120 db, 60 seconds), inhibition relative to vehicle controls
Description: As discussed above, preferred compounds of the invention are active in a standard anticonvulsant in vivo audiogenic test, such as the audiogenic mouse assay of Example 6 which follows, where DBA/2 mice about 20-23 days old are injected intraperitoneally with a test compound 30 minutes prior to being placed in a bell jar with exposure to auditory stimulus of 12 KHz sine wave at 110-120 db. References herein in vivo “audiogenic assay” are intended to refer to that protocol. […] As discussed above, activity in the audiogenic assay has been recognized as indicative that a test compound has neuroprotective properties. See, e.g., M. Tricklebank et al., European Journal of Pharmacology, supra; T. Seyfried, Federation Proceedings, supra.
Compounds were tested for their effectiveness in preventing seizures in DBA/2 mice which have a unique sensitivity to auditory stimulation. Exposure to loud high-frequency sounds can trigger seizure activity in these animals. […]
Mice were injected intraperitoneally with the compound specified in Table I below or with vehicle control, 30 minutes prior to being placed in a bell jar and turning on the auditory stimulus (12 KHz sine wave at 110-120 db). […] The auditory stimulus was left on for 60 seconds and mice reactions were timed and recorded. Percentage inhibition was determined with reference to vehicle controls.
For `Cc1ccc([C@H]2CCC[C@@H](c3ccc(C)cc3)N2C(=N)N)cc1` [Example 1, N-carboximidamide-r-2, c-6-di(4-methylphenyl)piperidine], the “Audiogenic Response % Inhib.” value was 42%. With `CC(C)c1ccc([C@H]2CCC[C@@H](c3ccc(C(C)C)cc3)N2C(=N)N)cc1.Cl` [Example 2, N-carboximidamide-r-2,c-6-di(4-isopropylphenyl)piperidine] the “Audiogenic Response % Inhib.” value was 69%.

Tested on: not given
Assay: not given
Conditions: not given
`Cc1ccc([C@H]2CCC[C@H](c3ccc(C)cc3)N2C(=N)N)cc1.Cl` showed a melting point of 120 °C. In the case of `Cl.N=C(N)N1[C@@H](c2ccccc2)CC[C@H]1c1ccccc1`, the melting point is reported as 242 to 244 °C. `Cl.N=C(Nc1ccccc1)N1[C@@H](c2ccccc2)CCC[C@H]1c1ccccc1` showed a melting point of 82 to 84 °C. Compound `Cc1ccc([C@H]2CCC[C@@H](c3ccc(C)cc3)N2C(=N)N)cc1` (as salt: mesylate) [Example 1, N-carboximidamide-r-2, c-6-di(4-methylphenyl)piperidine] has a melting point of 183 to 185 °C. Compound `CC(C)c1ccc([C@H]2CCC[C@@H](c3ccc(C(C)C)cc3)N2C(=N)N)cc1.Cl` [Example 2, N-carboximidamide-r-2,c-6-di(4-isopropylphenyl)piperidine] has a melting point of 197 to 199 °C.

From patent US6756389B2, “Pharmaceutically active compounds and methods of use” (Cambridge Neuroscience, Inc., priority 1996, dated 2004)
